Literature values in patent publication US20020054922A1, “Cosmetic composition and method” (priority 2000, published 2002).

System: skin punch biopsy wound
Details: 25 micrograms estradiol per 24 hours by skin patch

In the case of `C[C@]12CC[C@@H]3c4ccc(O)cc4CC[C@H]3[C@@H]1CC[C@@H]2O` [estrogen, estradiol], the “fibronectin levels compared to placebo” value (day 7) is given as “increased fibronectin levels”, the “wound size compared to placebo” value (day 7, aged men and women) is given as “decrease in wound size” and the “collagen levels compared to placebo” value (days 7 and 80) is given as “increased collagen levels”.
